Data on 33 molecules can be found in US20120065198A2, “Detection and Treatment of Schizophrenia” (Tokai University Educational System, priority 2007, published 2012).

The test system of test [1] is pentosidine formation. Nature of the test: Inhibitory effect on AGEs (pentosidine) formation in serum of renal failure patients. It is filed as biochemical, human. To be noted: final concentration 5 mM, 1 week at 37° C.; for Pentosidine Formation Ratio (%): control as 100%; for AGE Formation Inhibition Ratio (%): determined from the pentosidine formation ratio. The procedure: To 450 μl of protein (serum of renal failure patients with an informed consent) was added 50 μl of a solution of each test compound in dimethylsulfoxide (final concentration: 5 mM), and the resulting mixture was incubated for 1 week at 37° C. The quantity of pentosidine, which is one of the AGEs formed, was subsequently measured as follows.
First, in order to release the pentosidine formed in the protein, 50 μl of 10% trichloroacetic acid was added to 50 μl of the reacted sample, and the mixture was centrifuged to precipitate the protein that was then collected. The collected protein was washed with 300 μl of 5% trichloroacetic acid and dried; 100 μl of 6 N hydrochloric acid was subsequently added, and hydrolysis was performed for 16 hours at 110° C. The quantity of pentosidine (nmol/l) formed was measured by HPLC using a fluorescence detector (ODS C18, 4.6×250 mm, 335 nm, 385 nm), according to a gradient method (30 minutes, 1.0 ml/min) using a mobile phase of distilled water containing 0.1% trifluoroacetic acid/80% acetonitrile containing 0.08% trifluoroacetic acid (Miyata, T et al.,: J. Am. Soc., Nephrol., 7, 1198-1206, 1996; Miyata, T., et al., Proc. Natl. Acad. Sci., USA, 93 2353-2358, 1996).
In order to evaluate the inhibitory effect of each test compound on AGE formation, the proportion of the quantity of pentosidine formed was calculated as the ratio (%) of pentosidine formation relative to the quantity of pentosidine formed with a control as 100%. Further, from the calculated value, the ratio of inhibition of pentosidine formation (the ratio (%) of inhibition of AGE formation) was also determined.

The test system of test [2] is pentosidine formation. Nature of the test: Inhibitory activity on pentosidine formation, samples incubated with BSA and arabinose. It counts as biochemical. To be noted: incubated with BSA and arabinose instead of patient plasma; for Pentosidine Formation Ratio (%) at 5 Concentration: Table 13. The procedure: Plasma was collected from hemodialysis patients prior to dialysis with the patients' consent, and the plasma was filtered and sterilized. To the plasma (450 μL) was added solutions of TM-2002 in dimethylsulfoxide (50 μL) (final concentrations: 0.8, 2.0, and 5.0 mM), and the mixtures were incubated for 1 week at 37° C. The levels of the pentosidine formation were measured.
Pentosidine was measured as follows. To each sample (50 μL) after incubation was added an equal volume of 10% trichloroacetic acid, and the mixture was subsequently centrifuged at 5,000 g for 5 minutes. After the supernatant was removed, the pellet was washed with 5% trichloroacetic acid (300 μL). The pellet was dried under reduced pressure, and subsequently hydrolyzed in a 6N HCl solution (100 μL) under a nitrogen atmosphere for 16 hours at 110° C. To the acid hydrolysate was then added 5N NaOH (100 μL) and 0.5 M phosphate buffer (pH 7.4) (200 μL); the mixture was subsequently filtered through a micropore filter with 0.5 μm pores and diluted with PBS. The concentration of the released pentosidine was measured by reverse-phase HPLC using a fluorescence detector (RF-10A, Shimadzu Corporation) (Miyata, T. et al.; Proc. Natl. Acad. Sci. USA, Vol. 93, p. 2353-2358, 1996). The effluent was monitored at the excitation/emission wavelength of 335/385 nm. Synthetic pentosidine was used as the reference material. The detection limit of pentosidine was 0.1 pmol/mg protein.
(2) Other edaravone analogues (Compounds (1) or (2)) were investigated for their inhibitory activities on pentosidine formation in the same manner as in Section (1) above, except that the samples were incubated with BSA and arabinose instead of the patient plasma. In the tables, “-” means that the test was not conducted.

On to `NC1=NN(c2ccccc2)C(=O)C1C(=O)C(=O)Nc1ccccc1` (stereo not drawn) [(1)], for which, in test [1], the “Pentosidine Formation Ratio (%)” value worked out at 18.1% and the “AGE Formation Inhibition Ratio (%)” value turned out to be 81.9%.

On to `NC1=NN(c2ccccc2)C(=O)C1C(=O)C(=O)Nc1nccs1` (stereo not drawn) [(2)], for which, in test [1], the “Pentosidine Formation Ratio (%)” value came to 26.1% and the “AGE Formation Inhibition Ratio (%)” value was 73.9%.

Turning to `CC1=NN(c2ccc(N)cc2)C(=O)C1CCO` (stereo not drawn) [(5)], in test [1], the “Pentosidine Formation Ratio (%)” value was determined as 9.33% and the “AGE Formation Inhibition Ratio (%)” value was 90.67%.

On to `NC1=NN(c2ccccc2)C(=O)C1Sc1nnnn1-c1ccccc1` (stereo not drawn) [(6)], for which, in test [1], the “Pentosidine Formation Ratio (%)” value is 16.8% and the “AGE Formation Inhibition Ratio (%)” value was found to be 83.2%.

Turning to `CC1=NN(c2ccccc2)C(=O)C1CCC(=O)O` (stereo not drawn) [(7)], in test [1], the “Pentosidine Formation Ratio (%)” value came out at 27.2% and the “AGE Formation Inhibition Ratio (%)” value came to 72.8%.

For the molecule `CC(=O)NC1C(=O)N(c2ccccc2)N=C1C` (stereo not drawn) [(8)], in test [1], the “Pentosidine Formation Ratio (%)” value is recorded as 23.5% and the “AGE Formation Inhibition Ratio (%)” value is 76.5%.

As for `CC1=NN(c2ccccc2)C(=O)C1C(c1ccccc1)c1c(C)nn(-c2ccccc2)c1O` (stereo not drawn) [(9)], in test [1], the “Pentosidine Formation Ratio (%)” value is given as 30.8% and the “AGE Formation Inhibition Ratio (%)” value is given as 69.2%.

For `O=C1C2CCCC2=NN1c1ccccc1` (stereo not drawn) [(10)], in test [1], the “Pentosidine Formation Ratio (%)” value is 18.0% and the “AGE Formation Inhibition Ratio (%)” value was determined as 82.0%.

Regarding `CC1=NN(c2ccccc2)C(=O)C1NS(=O)(=O)c1ccc(C)cc1` (stereo not drawn) [(11)], in test [1], the “Pentosidine Formation Ratio (%)” value worked out at 24.9% and the “AGE Formation Inhibition Ratio (%)” value was found to be 75.1%.

As for `CC1=NN(c2ccc(C)cc2)C(=O)/C1=C/c1ccc(O)c(O)c1` [compound 44, 4-(3,4-dihydroxy-benzylidene)-5-methyl-2-p-toluyl-2,4-dihydro-pyrazol-3-one], in test [2], the “Pentosidine Formation Ratio (%) at 5 mM Drug Concentration” value worked out at 66.19%.

Take `CC(=O)c1ccc(N2N=C(C)/C(=C3\C(=O)Nc4ccccc43)C2=O)cc1` [compound 45, 3-[1-(4-acetyl-phenyl)-3-methyl-5-oxo-1,5-dihydro-pyrazol-4-ylidene]-1,3-dihydro-indol-2-one]: the “Pentosidine Formation Ratio (%) at 5 mM Drug Concentration” value in test [2] stood at 19.22%.

With `CC1=NN(c2ccc(F)cc2)C(=O)/C1=C\c1c(C)nn(-c2ccccc2C)c1O` [compound 46, 2-(4-fluoro-phenyl)-4-(5-hydroxy-3-methyl-1-o-toluyl-1H-pyrazol-4-ylmethylene)-5-methyl-2,4-dihydro-pyrazol-3-one], the “Pentosidine Formation Ratio (%) at 5 mM Drug Concentration” value in test [2] is reported as 15.69%.

Take `COc1cc(/C=C2\C(=O)N(c3ccc(Cl)cc3)N=C2C(F)(F)F)ccc1O` [compound 47, 2-(4-chloro-phenyl)-4-(4-hydroxy-3-methoxy-benzylidene)-5-trifluoromethyl-2,4-dihydro-pyrazol-3-one]: the “Pentosidine Formation Ratio (%) at 5 mM Drug Concentration” value in test [2] was determined as 28.86%.

`CCc1ccc(N2N=C(C)/C(=C\c3ccc(O)cc3)C2=O)cc1` [compound 48, 2-(4-ethyl-phenyl)-4-(4-hydroxy-benzylidene)-5-methyl-2,4-dihydro-pyrazol-3-one]: in test [2], the “Pentosidine Formation Ratio (%) at 5 mM Drug Concentration” value is listed as 0.02%.

For `CC1=NN(c2ccc(S(N)(=O)=O)cc2)C(=O)/C1=C/c1ccc(O)cc1` [compound 49, 4-[4-(4-hydroxy-benzylidene)-3-methyl-5-oxo-4,5-dihydro-pyrazol-1-yl]-benzenesulfonamide], the “Pentosidine Formation Ratio (%) at 5 mM Drug Concentration” value in test [2] turned out to be 7.09%.

Take `CCOC(=O)c1ccc(N2N=C(C(F)(F)F)/C(=C/c3cccs3)C2=O)cc1` [compound 50, 4-(5-oxo-4-thiophen-2-ylmethylene-3-trifluoromethyl-4,5-dihydro-pyrazol-1-yl)-benzoic acid ethyl ester]: the “Pentosidine Formation Ratio (%) at 5 mM Drug Concentration” value in test [2] came out at 63.17%.

As to `CN(C)c1ccc(/C=C2\C(=O)N(c3ccc(S(N)(=O)=O)cc3)N=C2C(F)(F)F)cc1` [compound 51, 4-[4-(4-dimethylamino-benzyliden)-5-oxo-3-trifluoromethyl-4,5-dihydro-pyrazol-1-yl]-benzenesulfonamide], in test [2], the “Pentosidine Formation Ratio (%) at 5 mM Drug Concentration” value came out at 41.68%.

Consider `O=C1/C(=C\c2ccc(O)cc2)C(C(F)(F)F)=NN1c1ccccc1` [compound 53, 4-(4-hydroxy-benzylidene)-2-phenyl-5-trifluoromethyl-2,4-dihydro-pyrazol-3-one], for which, in test [2], the “Pentosidine Formation Ratio (%) at 5 mM Drug Concentration” value was 66.76%.

Turning to `CC1=NN(c2ccc(C)c(C)c2)C(=O)/C1=C\c1ccc(O)cc1O` [compound 54, 4-(2,4-dihydroxy-benzylidene)-2-(3,4-dimethyl-phenyl)-5-methyl-2,4-dihydro-pyrazol-3-one], in test [2], the “Pentosidine Formation Ratio (%) at 5 mM Drug Concentration” value came to 73.48%.

On to `CC1=NN(c2ccc3ccccc3c2)C(=O)/C1=C/c1ccc(O)cc1` [compound 58], for which the “Pentosidine Formation Ratio (%) at 5 mM Drug Concentration” value in test [2] is on record as 0.07%.

For `COc1ccc(/C=C2/C(=O)N(c3ccccc3)N=C2C)c(OC)c1O` [compound 59, 4-(3-hydroxy-2,4-dimethoxy-benzylidene)-5-methyl-2-phenyl-2,4-dihydro-pyrazol-3-one], in test [2], the “Pentosidine Formation Ratio (%) at 5 mM Drug Concentration” value is listed as 5.3%.

`COc1cc(/C=C2/C(=O)N(c3ccc(C(=O)OC(C)C)cc3)N=C2C)ccc1O` [compound 60]: in test [2], the “Pentosidine Formation Ratio (%) at 5 mM Drug Concentration” value was 9.02%.

Take `COc1cc(/C=C2/C(=O)N(c3ccc(Cl)c(C(=O)O)c3)N=C2C)c(Cl)cc1O` [compound 61, 2-chloro-5-[4-(2-chloro-4-hydroxy-5-methoxy-benzylidene)-3-methyl-5-oxo-4,5-dihydro-pyrazol-1-yl]-benzoic acid]: the “Pentosidine Formation Ratio (%) at 5 mM Drug Concentration” value in test [2] was found to be 46.52%.

With `CC1=NN(c2ccccc2)C(=O)/C1=C/N(C)C` [compound 65, 4-dimethylaminomethylene-5-methyl-2-phenyl-2,4-dihydro-pyrazol-3-one], the “Pentosidine Formation Ratio (%) at 5 mM Drug Concentration” value in test [2] was 62.43%.

Regarding `CC1=NN(c2ccccc2)C(=O)/C1=C/c1c(C)nn(-c2ccccc2)c1O` [compound 66, 4-(5-hydroxy-3-methyl-1-phenyl-1H-pyrazol-4-ylmethylene)-5-methyl-2-phenyl-2,4-dihydro-pyrazol-3-one], in test [2], the “Pentosidine Formation Ratio (%) at 5 mM Drug Concentration” value was 15.17%.

In the case of `CC1=NN(c2ccccc2)C(=O)/C1=C/c1ccc(Cl)cc1` [compound 67], the “Pentosidine Formation Ratio (%) at 5 mM Drug Concentration” value in test [2] was determined as 9.09%.

On to `Cc1ncc2c(c1O)C(c1c(C)nn(-c3ccccc3)c1O)OC2` (stereo not drawn) [compound 68], for which the “Pentosidine Formation Ratio (%) at 5 mM Drug Concentration” value in test [2] stood at 2.82%.

Take `Cc1ncc2c(c1O)C(c1c(C)nn(-c3ccccc3)c1O)OC2.Cl` (stereo not drawn) [compound 69, 1-(5-hydroxy-3-methyl-1-phenyl-1H-pyrazol-4-yl)-6-methyl-1,3-dihydro-furo [3,4-c]pyridin-7-ol]: the “Pentosidine Formation Ratio (%) at 5 Concentration” value in test [2] turned out to be 2.94%.

Consider `CC1=NN(c2ccccc2)C(=O)/C1=C/c1ccc(O)cc1` [compound 70, 4-(4-hydroxy-benzylidene)-5-methyl-2-phenyl-2,4-dihydro-pyrazol-3-one], for which the “Pentosidine Formation Ratio (%) at 5 Concentration” value in test [2] was found to be 0.04%.

As to `CC1=NN(c2cccc(Cl)c2)C(=O)/C1=C/c1ccc(O)cc1` [compound 71, 2-(3-chloro-phenyl)-4-(4-hydroxy-benzylidene)-5-methyl-2,4-dihydropyrazol-3-one], the “Pentosidine Formation Ratio (%) at 5 Concentration” value in test [2] is given as 4.63%.

In the case of `CC1=NN(c2ccccc2)C(=O)/C1=C/c1ccc(OCc2ccccc2)cc1` [compound 72, 4-(4-benzyloxy-benzylidene)-5-methyl-2-phenyl-2,4-dihydropyrazol-3-one], in test [2], the “Pentosidine Formation Ratio (%) at 5 Concentration” value came to 7.63%.

On to `CC1=NN(c2cccc(Cl)c2)C(=O)/C1=N/O` [compound 73, 2-(3-chloro-phenyl)-5-methyl-2H-pyrazol-3,4-dione-4-oxime], for which, in test [2], the “Pentosidine Formation Ratio (%) at 5 Concentration” value was 66.42%.

As for `CCOC(=O)C1=NN(c2ccccc2)/C(=C2\C(=O)N(c3ccccc3)N=C2c2ccccc2)S1` [compound 74], the “Pentosidine Formation Ratio (%) at 5 Concentration” value in test [2] is reported as 87.24%.
